This is an account of results in paper PMC9519446, “Discovery of an Orally Active Benzoxaborole Prodrug Effective in the Treatment of Chagas Disease in Non-human Primates” (Nature microbiology, 2022).

Several values for one entry are separate records, joined by “and”; a condition that tells them apart may be missing. Equal values may be shown once. Read-outs that look alike come from different tables or passages of the source.

In series [1] the test system is CPSF3-OE T. cruzi intracellular amastigotes. The series is described as follows: microbe, parasite or virus in culture. The class given is cell-based. As to conditions: Trypanosoma cruzi; for IC50: read-out: CPSF3-OE IC50, intracellular amastigotes; for activity at 0.1 µM / activity at 0.4 µM / activity at 0.7 µM / activity at 1 µM / activity at 1.3 µM / activity at 1.6 µM: 72 h, read-out: % of maximum, CPSF3-OE. The protocol: (§1) The in vitro anti-T. cruzi amastiogote activity assay was performed and optimized based on the protocol described previously. The change in tdTomato fluorescence intensity was determined as a measurement of growth over 72 hours of culture. For assaying drug effects on extracellular amastigotes, trypomastigotes were collected from infected Vero cell cultures and converted in acidic media as previously described. Amastigotes (50,000/well) were incubated with 2-fold serial dilutions of compounds for 48 hours. The ATP production was used as an indication of growth in this case, and was measured by ATPlite Luminescence ATP Detection Assay System (PerkinElmer). Both fluorescence and luminescence were read using a BioTek Synergy Hybrid Multi-Mode reader equipped with the software Gene5 v 2.0 (BioTek). The dose-response curve was generated by […] analysis with GraphPad Prism v9.4.0 (GraphPad Software).
The CPSF3 gene was amplified using primers ‘[…]’ and ‘[…]’, and integrated into the pTrex vector [47] by NEBuilder HiFi DNA assembly (New England Biolabs). The construct of pTrex-CPSF was then transfected into Brazil tdTomato epimastigotes and selected by 60ug/ml blasticidin.
To confirm the CPSF overexpression in the selected transfectants, RNA was extracted as previously described and converted to cDNA using SuperScript Reverse Transcriptase (Invitrogen). Quantitative PCR reactions were performed in triplicate on the C1000 Touch Bio-Rad CFX96 real-time PCR detection system for CPSF using primer sets CPSF-1 (5'-[…]-3' and 5'-[…]-3') and CPSF-2 (5'-[…]-3' and 5'-[…]-3') in both control and CPSF over-expressing parasites, and the expression level was normalized to tubulin which was amplified using primers: ‘[…]’ and ‘[…]’.

Series [2] relates to TcCBP KO T. cruzi intracellular amastigotes. The series is described as follows: microbe, parasite or virus in culture. As to conditions: Trypanosoma cruzi, read-out: TcCBP KO IC50. The class given is cell-based. The protocol: as §1
The CBPs knockout was produced using ribonucleoprotein (RNP) complexes as previously described. Briefly, Brazil tdTomato strain epimastigotes were electroporated with RNP complexes containing SaCas9 and an sgRNA targeting CBP gene TcBrA4_0048170, plus a repair template containing stop codons in all three reading frames and the M13 sequence for use as a PCR anchor. The sgRNA targeted the ‘[…]” sequence. After 2 days of recovery, single-cell clones were derived by depositing epimastigotes into a 96-well plate at a density of 0.5 cell/well by using a MoFlo Astrios EQ cell sorter (Beckman Coulter). DNA isolation was performed for clones, and primer pair of 5’-[…]-3’ and 5’- […] -3’ was used for amplifying the wild type allele, while primer pair of M13-F: 5’- […] -3’ and 5’- […] -3’ was used for amplifying the mutant allele.

The test system of series [3] is T. cruzi intracellular amastigotes. The series is described as follows: In vitro anti-T. cruzi intracellular amastigote growth inhibition assay (tdTomato fluorescence over 72 hours, Vero cells). The class given is cell-based, Trypanosoma cruzi. As to conditions: for activity at 0.00407 µM: [uM] -2.39 [sic]. The protocol: as §1
Series [4] concerns T. cruzi extracellular amastigotes. The series is described as follows: Extracellular amastigote assay (ATPlite luminescence, 48 hours). The class given is cell-based. Conditions: Trypanosoma cruzi; extracellular amastigotes, Fig. 2a; read-out: Extracellular IC50. The protocol: as §1
Background: ATP-based viability assays read luminescence as a measure of living cells.

Series [5] has as its system T. cruzi Brazil strain. As to the kind of experiment: Mouse cure assays (daily oral treatment, immunosuppression, qPCR of skeletal muscle, blood microscopy, hemoculture). Format: in vivo, C57BL/6 mice. Conditions: individual mice. The protocol: Male or female C57BL/6 mice were intraperitoneally infected with 10^4 trypomastigotes of the Brazil strain. Mouse infection was confirmed at 25-30 dpi by detection of CD8^+ T cells specific against the T. cruzi TSKb20 peptide in blood. Compounds resuspended in 1% carboxymethyl cellulose and 0.1% Tween 80, were administered daily by gavage at the specified concentrations. In order to optimally detect persistent infection, immune responses in the mice were suppressed by intraperitoneal injection of four doses of cyclophosphamide every 2-3 days (200 mg/kg/day), beginning one week after the end of therapeutic treatment. At the end of the immunosuppression regimen, peripheral blood was checked under light microscope for parasites and cultured in LDNT media. Mouse skeletal muscle samples were obtained at the end of the immunosuppression and processed for T. cruzi-DNA detection by qPCR as previously described.
(In general: Real-time PCR tracks product formation cycle by cycle.)

A short description of series [6]: High dose 7-day toxicology study with exposure. Conditions: 7-day toxicology studies / rats.
Series [7] concerns broad array of mammalian enzymes, receptors and ion channels. As to the kind of experiment: Preliminary safety pharmacology panel. The class given is binding.
The nature of series [8]: Ames study.
In series [9] the test system is representative cytochrome P450 enzymes. The series is described as follows: Cytochrome P450 inhibition. Format: in vitro ADME. Conditions: 10 uM.
Series [10] in a line: In vitro micronucleus study. The class given is cell-based.
Series [11] has as its system tdTomato expressing T. cruzi (CL strain). As to the kind of experiment: Rapid in vivo assay: footpad infection, single oral dose, fluorescence imaging 2 and 4 dpi (proliferation index).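 Note: single oral dose of 50 mg/kg given at 2 dpi.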 Also on record: species or system C57BL/6 mice. As to conditions: Fig. 3a; individual footpads. The protocol:
Fluorescent intensity of the feet was measured at 2 dpi before compound administration and at 4 dpi in the Maestro in vivo imaging system equipped with the software Maestro 2.1.0 (CRi) as previously described. The proliferation index was estimated as PI=[(T4d – T2d)/(mUnt4d-mUnt2d)]*100; where T4d and T2d are the fluorescence intensity of the feet of the treated animals at days 4 and 2 post-infection respectively; mUnt4d and mUnt2d are the average fluorescence intensity of the feet of the untreated animals at 4 and 2 dpi respectively.

Series [12] has as its system T. cruzi. Conditions: T. cruzi-infected NHPs; cited from earlier work.
The mark [13] stands for this setting: Trypanosoma cruzi, Vero, 72 h, read-out: % of maximum, WT, single replicates.
Where [14] appears, read: Trypanosoma cruzi, Vero, read-out: WT IC50, WT intracellular amastigotes, control of CPSF3-OE comparison.
[15] abbreviates: Trypanosoma cruzi, Vero, read-out: WT IC50, WT intracellular amastigotes, control of TcCBP KO comparison.
Setting [16] is: Trypanosoma cruzi, Vero, in vitro, Fig. 1a, Extended Data Fig. 1a, read-out: T. cruzi IC50.
Where [17] appears, read: Fig. 3c, mice treated for 20 days.

In general, IC50 refers to the point on the concentration scale where inhibition reaches its midpoint. For the compound `Cc1c(C(=O)NC(C(=O)OCc2ccc(F)cc2)C(C)C)ccc2c1B(O)OC2` (centres unmarked) [AN11736, 4-fluorobenzyll-valinate amide benzoxaborole], the IC50 in series [1] was found to be 6.5 nM; in series [2], 618 nM; in series [3] (setting [14]) it was 3.2 nM; in series [3] (setting [15]) it was 3.2 nM. Besides, the activity at 0.00407 µM in [3] (setting [13]) was 46%. Besides, in [3] (WT, [uM] -1.43 as printed, single replicates), the “% of maximum” value was -1% and 1%.
Take `Cc1c(C(=O)N[C@H](C(=O)O)C(C)C)ccc2c1B(O)OC2` [AN14667]: the activity at 0.1 µM in series [1] ([uM] 0.10, single replicates) was found to be 97%; in series [1] (concentration 0.10 [uM] as printed), 97%; in series [3] (Trypanosoma cruzi, Vero, 72 h, read-out: % of maximum, intracellular, [uM] 0.10), 86%. In addition, the activity at 0.4 µM was 102% in series [1] ([uM] 0.40 as printed, single replicates); 102% in [1] (concentration 0.40 [uM] as printed); 66% in series [3] (Trypanosoma cruzi, Vero, 72 h, read-out: % of maximum, intracellular, [uM] 0.40). Further, the activity at 0.7 µM came to 108% in series [1] ([uM] 0.70, single replicates); 108% in series [1] (concentration 0.70 [uM] as printed); 43% in series [3] (Trypanosoma cruzi, Vero, 72 h, read-out: % of maximum, WT, [uM] 0.70, single replicates); 43% in series [3] (Trypanosoma cruzi, Vero, 72 h, read-out: % of maximum, WT, concentration 0.70 [uM] as printed); 43% in series [3] (Trypanosoma cruzi, Vero, 72 h, read-out: % of maximum, intracellular, [uM] 0.70). In addition, the activity at 1 µM was determined as 89% in series [1] ([uM] 1.00, single replicates); 89% in series [1] (concentration 1.00 [uM] as printed); 0% in series [3] (Trypanosoma cruzi, Vero, 72 h, read-out: % of maximum, WT, [uM] 1.00, single replicates). Besides, the activity at 1.3 µM in [1] ([uM] 1.30 [sic], single replicates) was 59%; in series [1] (concentration 1.30 [uM] as printed), 59%. The activity at 1.6 µM in series [1] ([uM] 1.60 as printed, single replicates) was 27%; in series [1] (concentration 1.60 [uM] as printed), 27%; in series [3] (Trypanosoma cruzi, Vero, 72 h, read-out: % of maximum, intracellular, [uM] 1.60), 0%. Besides, the IC50 came out at 3900 nM in series [4]; 5720 nM in series [3] (setting [16]); 3600 nM in series [3] (Trypanosoma cruzi, Vero, intracellular amastigotes, Fig. 2a, read-out: Intracellular IC50). Besides, the “reduced activity relative to ester prodrug” value in series [3] (both intra- and extracellular amastigotes) is on record as ~ 1000 fold. For the same compound, in series [3] (intracellular, [uM] 1.60), the “% of maximum” value came to 0%.
Regarding `Cc1c(C(=O)N[C@H](C(=O)OCc2ccc(F)cc2)C(C)(C)O)ccc2c1B(O)OC2` [AN14817], the IC50 in series [1] was found to be 24.8 nM; in series [2] it was 2200 nM; in series [3] (setting [14]) it was 6.3 nM; in series [3] (setting [15]) it was 6.3 nM; in [3] (setting [16]) it was 12 nM. The “Parasite equivalent/ 50 ng of DNA of skeletal muscle” value in series [5] (Fig. 3b, mice treated for 40 days) is 0.12 Parasite equivalent/ 50 ng of DNA and 0.09 Parasite equivalent/ 50 ng of DNA and 0.00383 Parasite equivalent/ 50 ng of DNA and 0.0341 Parasite equivalent/ 50 ng of DNA and 0.00725 Parasite equivalent/ 50 ng of DNA and 0.00351 Parasite equivalent/ 50 ng of DNA and 0.0145 Parasite equivalent/ 50 ng of DNA and 0.17 Parasite equivalent/ 50 ng of DNA; in series [5] (setting [17]), 0.30 Parasite equivalent/ 50 ng of DNA and 0.59 Parasite equivalent/ 50 ng of DNA and 0.42 Parasite equivalent/ 50 ng of DNA and 0.29 Parasite equivalent/ 50 ng of DNA and 0.40 Parasite equivalent/ 50 ng of DNA. In [6], the “dose proportionality of exposure” value is on record as “non-dose proportional exposure”. In [7], the “affinity for mammalian enzymes, receptors and ion channels” value is on record as “little to no affinity”. Further, in series [8], the “genotoxicity, Ames” value is “non-genotoxic”. For the same compound, in [9], the “inhibition of representative cytochrome P450 enzymes” value is recorded as “did not demonstrate significant inhibition”. The “genotoxicity, in vitro micronucleus” value in [10] is “non-genotoxic”. Besides, the activity at 0.00407 µM in [3] (setting [13]) was found to be 79%.
Regarding `Cc1c(C(=O)NC(C(=O)OCC2CCOC2)C(C)C)ccc2c1B(O)OC2` (centres unmarked) [AN16109], the IC50 in series [1] turned out to be 22.7 nM; in [2], 2500 nM; in [3] (setting [14]) it was 6.6 nM; in series [3] (setting [15]) it was 6.6 nM; in series [3] (setting [16]) it was 5 nM. Besides, the “Parasite proliferation index of footpads infected with tdTomato-expressing T. cruzi” value in series [11] was 52.8 and 35.3 and 33.3 and 35.0 and 26.3 and 26.8 and -3.0 and 4.6 and 35.6 and 29.4. For the same compound, the “Parasite equivalent/ 50 ng of DNA of skeletal muscle” value in series [5] (setting [17]) is 0.11 Parasite equivalent/ 50 ng of DNA and 0.27 Parasite equivalent/ 50 ng of DNA and 0.0541 Parasite equivalent/ 50 ng of DNA and 0.0079 Parasite equivalent/ 50 ng of DNA and 0.12 Parasite equivalent/ 50 ng of DNA and 0.0367 Parasite equivalent/ 50 ng of DNA; in series [5] (Fig. 3e, mice treated for 40 days with 2.5 mg/kg, 2.5 mg/kg), 0.223 Parasite equivalent/ 50 ng of DNA and 0.2345 Parasite equivalent/ 50 ng of DNA and 0.468 Parasite equivalent/ 50 ng of DNA and 0.01907 Parasite equivalent/ 50 ng of DNA and 0.1637 Parasite equivalent/ 50 ng of DNA and 1.455 Parasite equivalent/ 50 ng of DNA and 0.04407 Parasite equivalent/ 50 ng of DNA and 0.06524 Parasite equivalent/ 50 ng of DNA. The activity at 0.00407 µM in series [3] (setting [13]) is 75%. The “% of maximum” value turned out to be 0% in [3] (WT, [uM] 0.00 as printed, single replicates) and 13% in series [3] (WT, [uM] -1.91 as printed, single replicates).
For the compound `O=C(Cn1ccnc1[N+](=O)[O-])NCc1ccccc1` [BNZ], the “Parasite proliferation index of footpads infected with tdTomato-expressing T. cruzi” value in series [11] is 23.6 and 6.5 and 46.7 and 1.3 and 29.6 and 25.1 and 51.0 and 55.7 and -21.7 and -21.2.
Consider `CC[C@@H]([C@H](C)O)n1ncn(-c2ccc(N3CCN(c4ccc(OC[C@@H]5CO[C@@](Cn6cncn6)(c6ccc(F)cc6F)C5)cc4)CC3)cc2)c1=O` [posaconazole], for which, in series [12], the “failures in treatment trial” value is listed as 100%.
